Laboratory results reported in patent US20260294922A1, “Inhibitors of JUN N-Terminal Kinases (JNK1, JNK2, and/or JNK3) and Mitogen-Activated Protein Kinases (MAPK8, MAPK9, and/or MAPK10) and Methods of Using Same” (Baylor College of Medicine, priority 2023, published 2026).
Where “and” joins values, the source holds several entries; their conditions need not be identical. Equal values may be shown once. Entries after “also recorded” stand apart in the source; their conditions may differ. Read-outs that look alike come from different tables or passages of the source.

Experiments:
480 kinases = test: Eurofins KINOMEscan selectivity profile; assay type: binding; settings: Bentamapimod and Tanzisertib at 1 μM
[1] = test system: human endometriotic stromal cells (patient 143); test: IL-1β-stimulated pro-inflammatory gene expression in primary endometriotic stromal cells, patient 143; assay type: cell-based; settings: patient 143, relative to CDD-939
Description: Similar to patient “50”, lower concentrations of CDD-2728 were required to reduce the proinflammatory response of IL-1β in stromal cells on these measured genes than in 12Z epithelial cells.
To confirm and further support the results described herein, endometriotic stromal cell cultures were established from a second patient. For compliance purposes, this set of cell culture results are identified as Eosis143. These are stromal cells obtained from the lining of an ovarian endometrioma cyst wall.

[2] = Pharmacokinetics after intraperitoneal administration in mice; assay type: in vivo; settings: mouse, ip, 50 mg/kg, plasma
Description: Based on stability and estimated half-life of compounds exposed to liver microsome in vitro, CDD-2728 was selected for PK evaluation.

CLK3 = molecular target: T1, CLK3 (Homo sapiens, UniProt P49761); test: ThermoFisher SelectScreen, CLK3; assay type: binding
T1 construct: purchased ThermoFisher (SelectScreen, outsourced service)
T1 sequence (P49761 whole entry): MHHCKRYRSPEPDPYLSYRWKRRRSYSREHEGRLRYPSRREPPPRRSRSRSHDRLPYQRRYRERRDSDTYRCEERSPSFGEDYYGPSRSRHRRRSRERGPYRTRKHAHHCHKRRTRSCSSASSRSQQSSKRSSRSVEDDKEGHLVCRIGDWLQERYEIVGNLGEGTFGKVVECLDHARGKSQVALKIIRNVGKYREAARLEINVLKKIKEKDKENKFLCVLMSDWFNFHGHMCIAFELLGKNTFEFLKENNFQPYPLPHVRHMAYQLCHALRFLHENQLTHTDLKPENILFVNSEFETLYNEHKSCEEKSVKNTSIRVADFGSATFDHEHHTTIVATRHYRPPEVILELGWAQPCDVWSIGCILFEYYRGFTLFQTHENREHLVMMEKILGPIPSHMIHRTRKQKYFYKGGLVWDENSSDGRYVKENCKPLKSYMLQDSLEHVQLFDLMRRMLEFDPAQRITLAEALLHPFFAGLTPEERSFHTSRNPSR

[3] = test system: 12Z endometriotic epithelial cells; test: IL-1β-stimulated pro-inflammatory gene expression (qPCR) in 12Z cells; assay type: cell-based, human; settings: relative to bentamapimod
Description: These studies indicate that NanoBRET assays are an innovative technical platform to measure target engagement of CDD JNK inhibitors with the target JNK1, JNK2 or JNK3. As further evidence that JNK inhibitors address disease-relevant endpoints, biological responses of JNK inhibitors are provided herein, as measured in target tissue cellular models. 12Z immortalized endometriotic epithelial cells and patient-derived endometriotic stromal cells have been cultured with reference compound bentamapimod, CDD-2628, and CDD-2728. To exemplify the effects of CDD-2628 and CDD-2728 in the endometrial cell cultures, gene expression was measured using qPCR (expressed as fold-change relative to GAPDH, a housekeeping gene that is not affected by culture treatment effects) that reflect synthesis of inflammatory lipids (PTGS2), transformation of cells to a more migration and invasive potential (MMP-3) and chemoattractant cytokines to recruit pro-inflammatory immune cells (IL-6, IL-8).
In the culture systems employed in FIGS. 12A-12J, FIGS. 13A-13B, FIGS. 14A-14H, FIGS. 15A-15H, and FIGS. 16A-16F, the treatment of cells with IL-1β is used to mimic the peritoneal environment where IL-1β is most frequently measured at higher concentrations in patients with endometriosis (0.1 ng/mL-1 ng/mL) than in unaffected women (<0.01 ng/mL). The use of IL-1β to mimic the pro-inflammatory environment is a common method in cellular assays for endometriosis research. Although the concentrations of IL-1β in these cell cultures are higher than measured in peritoneal fluid, there are multiple other pro-inflammatory cytokines in peritoneal fluid that contribute to the pro-inflammatory environment.
Specifically, 12Z cells were plated at a density of 1×10^5 cells/well in a 12-well tissue culture plate, serum-starved overnight (17-18 h), pre-treated with vehicle (DMSO) or JNK inhibitor for 30 minutes, then stimulated with 10 ng/ml IL-1β in the presence or absence of the JNK inhibitors for 6 hours. After the 6-hour treatment, mRNA was extracted from the cells using the Qiagen RNEasy mini isolation kit and […] of mRNA was reverse transcribed into cDNA using the qScript cDNA Supermix (Quanta Biosciences). cDNA was amplified using SYBR Green Master Mix (Applied Biosystems) with quantitative Real Time PCR (BioRad CFX) using pre-designed and validated primers specific for genes encoding IL6, IL8, PTGS2/COX2, and MMP3 (BioRad). Relative quantification of these specific genes was calculated by the ΔΔCt method, normalizing their abundance relative to the internal housekeeping gene, GAPDH, followed by quantification relative to the vehicle-treated cells. Statistical analyses and visualizations were performed using a One Way ANOVA with a Tukey's multiple comparison post-hoc test on GraphPad Prism version 9.

iHEEC = test: Cell morphology, phospho-JNK and vimentin staining in iHEEC; assay type: cell-based, human
Description: FIGS. 28A-28C depict the impact of JNK inhibition on the cellular morphology and expression of surface marker, vimentin in iHEEC. […] Phospho-JNK staining in iHEEC can be either punctate staining in intracellular organelles or disperse staining through the cytoplasmic space of cells.

JNK1 = JNK1 (Homo sapiens, UniProt P45983); test: ThermoFisher SelectScreen, JNK1; assay type: binding
JNK1, sequence (P45983 whole entry): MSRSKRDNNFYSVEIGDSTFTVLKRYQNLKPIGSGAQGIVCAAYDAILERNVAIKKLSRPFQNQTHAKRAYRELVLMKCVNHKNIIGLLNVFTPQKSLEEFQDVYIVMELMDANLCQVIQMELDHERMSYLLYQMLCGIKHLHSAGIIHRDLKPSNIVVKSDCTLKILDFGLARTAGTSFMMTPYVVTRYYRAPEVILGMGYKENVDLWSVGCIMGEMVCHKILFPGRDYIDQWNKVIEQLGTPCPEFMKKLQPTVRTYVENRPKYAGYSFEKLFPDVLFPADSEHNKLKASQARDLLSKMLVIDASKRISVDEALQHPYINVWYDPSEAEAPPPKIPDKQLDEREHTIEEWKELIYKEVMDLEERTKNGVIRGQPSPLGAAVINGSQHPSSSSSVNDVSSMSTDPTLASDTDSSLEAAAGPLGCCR

[4] = Plasma ALT and AST after intraperitoneal administration; assay type: in vivo, mouse; settings: 24 h post-dose, individual mice 1-3
[5] = test system: immortalized human endometriotic epithelial cells (iHEEC); test: Phosphorylation of JNK and Jun in iHEEC; assay type: cell-based
Description: FIG. 26A depicts the effects of CDD-2728 and CDD-3013 on phosphorylation of the JNK enzyme itself (i.e., representing MEK4 inhibition) and phosphorylation of pSer63 and pSer73 on the transcription factor Jun in immortalized human endometriotic epithelial cells (iHEEC). The HEEC cells are a well characterized cell line that are relevant for the evaluation of inflammatory endpoints and measures of epithelial-to-mesenchymal transitions (EMT). […] This is consistent with the potency relationships of CDD-2728 relative to bentamapimod observed in cytokine gene expression described above in iHEEC cells and primary human stromal endometriotic cells. […] SP600125 has been frequently described as a poorly-selective JNK-I but in this context provides additional confirmation of inhibition of the JNK target kinase for CDD-2728. […] This adds further support to the critical role of JNK-1 to the therapeutic effect of the JNK inhibitors of the disclosure.

endometriotic lesions = test: Mouse model of induced endometriosis; settings: 14 days of treatment
Experimental: FIG. 22A presents the design of an in vivo model in which JNK-I were evaluated for their ability to cause regression of endometriosis in mice. […] In this experimental design, endometriosis is induced by introducing isolated endometrial tissues from a donor mouse, and the prepared endometrial cells are introduced into the peritoneal cavity of recipient mice. Fourteen (14) days after induction of endometriosis, drug treatments are initiated and continued for 14 days. At the end of study (i.e., 28 days) the presence of endometriosis lesions are determined and various measurements performed.

ERK2 = molecular target: T2, ERK2 (Homo sapiens, UniProt P28482); test: ThermoFisher SelectScreen, ERK2; assay type: binding
T2 construct: purchased ThermoFisher (SelectScreen, outsourced service)
T2 sequence (P28482 whole entry): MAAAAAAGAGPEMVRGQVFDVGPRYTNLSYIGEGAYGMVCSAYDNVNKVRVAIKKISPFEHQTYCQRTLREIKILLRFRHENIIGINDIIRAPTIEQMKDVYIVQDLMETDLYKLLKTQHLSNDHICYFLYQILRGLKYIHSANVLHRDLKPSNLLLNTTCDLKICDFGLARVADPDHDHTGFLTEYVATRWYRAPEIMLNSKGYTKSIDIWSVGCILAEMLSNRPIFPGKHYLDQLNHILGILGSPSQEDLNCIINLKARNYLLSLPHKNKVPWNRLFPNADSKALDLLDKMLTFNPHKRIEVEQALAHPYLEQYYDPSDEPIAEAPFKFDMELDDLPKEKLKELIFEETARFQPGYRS

12Z cells = test: Phosphorylation of Jun and JNK in IL-1β-treated 12Z cells; assay type: cell-based, human

CNCc1ccc(NC(=O)c2ccn3ncc(-c4cnc5[nH]ccc5c4)c3c2)cc1 [CDD-2346, N-(4-((methylamino)methyl)phenyl)-3-(1H-pyrrolo[2,3-b]pyridin-5-yl)pyrazolo[1,5-a]pyridine-5-carboxamide]
KINOMEscan selectivity / inhibition (480 kinases): selectivity of CDD-2346 was inadequate

CN(C)C(=O)c1cc(NC(=O)c2cc3c(-c4cnc5[nH]ccc5c4)cccc3s2)ccc1O [CDD-2728, N-(3-(dimethylcarbamoyl)-4-hydroxyphenyl)-4-(1H-pyrrolo[2,3-b]pyridin-5-yl)benzo[b]thiophene-2-carboxamide]
inhibition of IL-6, IL-8, MMP-3 and PTGS2 gene expression [1]: at lower doses than was required for inhibition of expression of these genes by CDD-939; also recorded: superior to bentamapimod in efficacy of suppression and potency | AUC(0-inf) [2]: 8.03 ± 2.52 µM·h | AUC(0-t) [2]: 5.7 ± 2.53 µM·h | CL/F [2]: 245 mL/min/kg | Cmax [2]: 440 ± 190 nM | Tmax [2]: 3 ± 1.15 h | MRT last ([2]; read-out: MRT0-t): 8.57 ± 1.33 h | MRT inf ([2]; read-out: MRT0-∞): 20.5 ± 13 h | half-life ([2]; read-out: T1/2 (converted)): 14.2 ± 8.92 h | half-life ([2]; read-out: half-life, injected into the peritoneal cavity (converted)): 14 h | Kd (CLK3): 1020 nM | IL-6 expression [3]: equally effective | IL-8 expression [3]: more potent inhibitors of IL-8 expression than bentamapimod; also recorded: effectively suppressed IL-8 production | MMP-3 expression [3]: more potent than CDD-939 at inhibiting MMP-3 expression; also recorded: more effective than bentamapimod | PTGS2 expression [3]: more effective than bentamapimod | phospho-JNK staining (iHEEC): reduce the intensity of phospho-JNK staining | vimentin staining (iHEEC): not a dramatic change in the vimentin staining | Kd (JNK1): 1 nM | ALT [4]: 87.34 IU/L and 29.17 IU/L and 23.07 IU/L | AST [4]: 78.94 IU/L and 38.37 IU/L and 35.80 IU/L | phosphorylation of JNK1 (P46) and JNK2 (P54) [5]: inhibits phosphorylation of JNK1 (P46) and JNK2 (P54) | phosphorylation of Jun at pSer63 and pSer73 [5]: more effectively than CDD-939 | impact on uterine, liver or kidney weight / other tissues (endometriotic lesions): no impact | Kd (ERK2): 534 nM | phosphorylation of JNK1 or JNK2 (12Z cells): undetectable changes | phosphorylation of Jun relative to total Jun (12Z cells; relative to bentamapimod): superior efficacy
